Measurements: patent publication US20230099204A1, “PHARMACEUTICAL COMPOSITION FOR PREVENTION OR TREATMENT OF CANCER IN WHICH KRAS MUTATION AND ACTIVATED RON ARE PRESENT” (WELLMARKER BIO CO., LTD., priority 2020, published 2023)

Tests used:
HCT15 = assay: MTS assay, cytotoxicity on colorectal cancer cell line HCT15; format: cell-based; settings: Homo sapiens, HCT-15, RON Δ160, KRAS G13D, 72 hours
Experimental: (§1) MTS assay was performed to compare cytotoxicity of the compounds of Example 1, Example 2, Example 3, Example 4, Example 5, Example 6, and positive control 1 on a colorectal cancer cell line, and a cell death rate of the colorectal cancer cell line was analyzed to compare anticancer activity of the compounds.
(§2) The MTS assay was performed by seeding each colorectal cell line in a 96-well plate at 1,000 cells per well, and after 24 hours, performing treatment with the compounds of Examples 1 to 6 and positive control 1 at various concentrations (0.000001 μM to 10 μM) in 100 μL of 10% FBS-RPMI medium (WELGENE Inc.) per well. The cells were incubated for 72 hours. Then, 20 μL of MTS solution (Promega) was added thereto, and the cells were incubated for 2 hours. Then, the absorbance was measured at 490 nm. The IC50 values for the compounds of Examples 1 to 6 and positive control 1 were calculated using GraphPad Prism™ 5 to investigate cytotoxicity.

HCT8 [1] = assay: Cell death induction, trypan blue cell counting, HCT8; format: cell-based, human; settings: HCT8 (pTyr-wtRON); 1 μM; 48 hours; FIG. 1
Experimental: (§3) Based on the results above, to identify the cell death-inducing ability of the compounds of Example 1 and positive control 1, which are representative materials, preparation was performed by seeding respective colorectal cancer cell lines SNU-[…], HCT8, T84, and SW620 onto 60-mm plates at 3×10^5 cells, and then incubation was performed for 24 hours. Thereafter, treatment with each of Example 1 and positive control 1 was performed at 1μM and incubation was performed for 48 hours. After 48 hours, the cells and cell suspensions were collected by treatment with trypsin, resuspended in 1× PBS and stained using a trypan blue solution (Sigma, cat# T8154). The stained cells were counted using a hemocytometer. Cell counting was repeated, and the mean and the standard deviation were calculated.

SW620 [2] = assay: Cell death induction, trypan blue cell counting, SW620; format: cell-based, human; settings: 1 μM, 48 hours
Experimental: as §3, with “48 hours. In addition, preparation was performed by seeding the cell line SW620 onto a 60-mm plate at 3×10^5 cells, and then incubation was performed for 24 hours. Thereafter, treatment with each of Example 1, positive control 1, positive control 2, and positive control 3 was performed at 1 μM. After 48” for “48 hours. After 48”

SNU-C2A = assay: Cell death induction, trypan blue cell counting, SNU-C2A; format: cell-based; settings: SNUC2A with inactive RON; 1 μM; 48 hours; FIG. 1
Experimental: as §3

SNUC2A = assay: MTS assay, cytotoxicity on colorectal cancer cell line SNUC2A; format: cell-based; settings: RON mutation negative, KRAS G12D, 72 hours
Experimental: as §1, §2

[3] = tested on: colorectal cancer patient-derived cell lines; assay: Cell death induction (cleaved caspase 3 staining) in colorectal cancer patient-derived cell lines; format: cell-based, human; settings: 1 μM, FIG. 4
HCT8 [4] = assay: MTS assay, cytotoxicity on colorectal cancer cell line HCT8; format: cell-based; settings: Homo sapiens, HCT-8, RON wt, KRAS G13D, 72 hours
Experimental: as §1, §2

[5] = tested on: SW620 (KRAS G12V/mRON Δ155); assay: Cell line SW620-transplanted mouse model; format: in vivo, BALB/c nude mice
Experimental: (§4) 5-Week-old female BALB/c nude mice were purchased and acclimatized for 1 week. Then, human colorectal cancer patient-derived cell line SW620 (KRAS
(§5) G12V/mRON Δ155) at 5×10^6 cells/mouse was injected subcutaneously (100 μL) into the right dorsal side of the mice. The compound of Example 1 was orally administered when the tumor reached a size of about 100 mm^3. The drug was administered once a day for 4 weeks, and tumor size and mouse body weight were measured twice a week. After completion of the drug administration, the experimental animals were euthanized, and then the tumors were extracted and weighed for comparative analysis.
(§6) A portion of the extracted tumor tissue was fixed in 10% formalin and processed into a paraffin block. Then, the block was made into sections. Staining of the slide was performed through immunochemical staining. Another portion of the extracted tumor tissue was subjected to lysis, and then Western blotting was used to identify changes in expression of respective proteins.

SW480 = assay: MTS assay, cytotoxicity on colorectal cancer cell line SW480; format: cell-based; settings: Homo sapiens, RON Δ155, KRAS G12V, 72 hours
Experimental: as §1, §2

DLD1 = assay: MTS assay, cytotoxicity on colorectal cancer cell line DLD1; format: cell-based; settings: Homo sapiens, DLD-1, RON wt, KRAS G13D, 72 hours
Experimental: as §1, §2

[6] = tested on: HCT8 (KRAS G13D/pTyr-wtRON(+)); assay: Cell line HCT8-transplanted mouse model; format: in vivo, BALB/c nude mice
Experimental: as §4, §5, §6
The experiment was conducted in the same method as the procedure of Experimental Example 3, except that human colorectal cancer patient-derived cell line HCT8 (KRAS G13D/pTyr-wtRON(+)) was used in place of the human colorectal cancer patient-derived cell line SW620 (KRAS G12V/mRON Δ155), and the respective compounds of Example 1, positive control 1, and positive control 2 were administered.

T84 = assay: MTS assay, cytotoxicity on colorectal cancer cell line T84; format: cell-based; settings: Homo sapiens, RON Δ165, KRAS G13D, 72 hours
Experimental: as §1, §2

SW620 [7] = assay: MTS assay, cytotoxicity on colorectal cancer cell line SW620; format: cell-based; settings: Homo sapiens, SW-620, RON Δ155, KRAS G12V, 72 hours
Experimental: as §1, §2

[8] = immunochemical staining, FIG. 7

CCOc1ccn(-c2ccc(F)cc2)c(=O)c1C(=O)Nc1ccc(Oc2ccnc3cc(-c4ccc(CN5CCOCC5)cn4)sc23)c(F)c1.Cl [Example 1, 4-ethoxy-N-[3-fluoro-4-({2-[5-(morpholinomethyl)pyridine-2-yl]thieno[3,2-b]pyridine-7-yl}oxy)phenyl]-1-(4-fluorophenyl)-2-oxo-1,2-dihydropyridine-3-carboxamide hydrochloride]
IC50 (HCT15): 230 nM | cell death induction efficacy (HCT8 [1]): cell-killing efficacy was exhibited | cell death rate (SW620 [2]; SW620 (KRAS G12V/mRON Δ155), FIG. 2): high cell death rate | cell death induction efficacy (SW620 [2]; SW620 with a RON mutation, FIG. 1): cell death induction efficacy was exhibited regardless of mutation type | cell death induction efficacy (SNU-C2A): no response | IC50 (SNUC2A): 5780 nM | cell death induction efficacy ([3]; patient-derived cell line expressing a RON mutation or pTyr-wtRON): exhibited cell death induction efficacy | cell death induction efficacy ([3]; patient-derived cell line with inactive RON): did not exhibit cell death induction efficacy | IC50 (HCT8 [4]): 420 nM | Tumor growth inhibition (TGI, %) ([5]; 30 mg/kg, oral, once a day for 4 weeks): 79.2 ± 2.2% | expression of cleaved caspase 3 in tumor tissue [5, 8]: induced expression | expression of cyclin D1 (PD marker) in tumor tissue [5, 8]: decreased expression | expression of pTyr-RON in tumor tissue [5, 8]: decreased expression | tumor growth inhibitory efficacy ([5]; oral, 4 weeks, Table 5, FIG. 5, FIG. 6): high tumor growth inhibitory efficacy | IC50 (SW480): 340 nM | IC50 (DLD1): 240 nM | Tumor growth inhibition (TGI, %) ([6]; 10 mg/kg, oral, once a day for 4 weeks): 58.5 ± 9.1% | tumor growth inhibitory efficacy ([6]; compared with positive control 1 and positive control 2, FIG. 8): high tumor growth inhibitory efficacy | IC50 (T84): 350 nM | IC50 (SW620 [7]): 320 nM
